Measurements taken from patent US20240252474A1, “METHODS AND COMPOSITIONS COMPRISING A CARDIO-TOLERATED HDAC INHIBITOR” (HUYABIO International, LLC, priority 2023, published 2024).

Test: Phase 1b safety and tolerability of HBI-8000 combined with nivolumab (DLTs, TEAEs)
Type: in vivo
Conditions: for Dose-limiting toxicity (DLT): + nivolumab, 28 days
Description: The present example, was a Phase Ib/2 open-label dose finding study for HBI-8000 (also referred to in the art as “chidamide” or “tucidinostat” and also referred to herein as a compound of formula I) in combination with nivolumab in patients with advanced solid tumors, including melanoma, RCC (renal cell carcinoma), and NSCLC (non-small cell lung cancer). This study was conducted in accordance with Good Clinical Practice guidelines and the Declaration of Helsinki and with assurance/approval from the US Department of Health and Human Services; the protocol was approved by the institutional review boards or ethics committees of all participating sites. All patients provided written informed consent to participate before enrollment. […]
HBI-8000 at three dose levels (20 mg, 30 mg, and 40 mg) given orally twice a week (BIW) were evaluated. Doses were taken approximate 30 minutes after a meal. The starting dose (20 mg) was selected based on pharmacokinetic profiles established for monotherapy in Japanese patients with T-cell lymphoma.
The decision to escalate the dose was based on the conventional 3+3 design and observed incidences of dose-limiting toxicities (DLTs). Each treatment cycle was defined as 28 days. […] Subjects experiencing DLT within the first two weeks after having received 100% of assigned dose of HBI-8000 are also evaluable for DLT. Unacceptable toxicities were defined as grade 3 or higher non-hematologic and hematologic toxicities with clinical complications. Unacceptable toxicities observed over the first 28 days following HBI-8000 administration were considered as DLTs. […] HBI-8000 administration continued until disease progression or unacceptable toxicity was observed. The efficacy of the combination was further evaluated in an expanded cohort of selected patient populations at RP2D based on an objective response rate according to Response Evaluation Criteria in Solid Tumors (RECIST) version 1.1 criteria, progression-free survival, and duration of responses.
Safety evaluations included physical examinations, vital signs, ECGs, ECOG performance status, and laboratory tests.
Statistical analyses of safety, tolerability, and anti-tumor activity were primarily descriptive in nature. Toxicities were tabulated by type and grade. The safety population included all patients who received ≥1 dose of HBI-8000 and nivolumab. Continuous variables were summarized using descriptive statistics and categorical variables were summarized with number and percentage at each category. Pharmacokinetic parameters were derived using noncompartmental methods with Phoenix® WinNonlin® Version 6.4 (Certara, L. P., Princeton, NJ, USA).

[1] = 40 mg HBI-8000 BIW + nivolumab, N = 7
[2] = 20, 30 and 40 mg HBI-8000 + nivolumab, N = 17

Structure (SMILES): Nc1cc(F)ccc1NC(=O)c1ccc(CNC(=O)/C=C/c2cccnc2)cc1 [HBI-8000, N-(2-amino-4-fluorophenyl)-4-[[[(2E)-1-oxo-3-(3-pyridinyl)-2-propen-1-yl]amino]methyl]benzamide]
- Any SAE, number of subjects [1]: 4 n
- Any TEAE, number of subjects [1]: 7 n
- Aspartate aminotransferase increased, All, G < 3 [1]: 1 (14) n (%)
- Aspartate aminotransferase increased, Related Both, Any G [1]: 1 (14) n (%)
- Atrial fibrillation, All, G < 3 [1]: 2 (29) n (%)
- Atrial fibrillation, All, G ≥ 3 [1]: 1 (14) n (%)
- Atrial fibrillation, Related Both, Any G [1]: 1 (14) n (%)
- Contusion, All, G < 3 [1]: 3 (43) n (%)
- Contusion, Related Both, Any G [1]: 2 (29) n (%)
- Contusion, Related HBI, Any G [1]: 1 (14) n (%)
- Decreased appetite, All, G < 3 [1]: 3 (43) n (%)
- Decreased appetite, All, G ≥ 3 [1]: 1 (14) n (%)
- Decreased appetite, Related Both, Any G [1]: 1 (14) n (%)
- Decreased appetite, Related HBI, Any G [1]: 2 (29) n (%)
- Dehydration, All, G < 3 [1]: 2 (29) n (%)
- Diarrhoea, All, G < 3 [1]: 2 (29) n (%)
- Diarrhoea, All, G ≥ 3 [1]: 1 (14) n (%)
- Diarrhoea, Related Both, Any G [1]: 2 (29) n (%)
- Diarrhoea, Related HBI, Any G [1]: 1 (14) n (%)
- Dizziness, All, G < 3 [1]: 2 (29) n (%)
- Dizziness, Related Both, Any G [1]: 1 (14) n (%)
- Dizziness, Related HBI, Any G [1]: 1 (14) n (%)
- Dyspnoea, All, G < 3 [1]: 3 (43) n (%)
- Dyspnoea, All, G ≥ 3 [1]: 1 (14) n (%)
- Dyspnoea, Related Both, Any G [1]: 1 (14) n (%)
- Fall, All, G < 3 [1]: 2 (29) n (%)
- Fatigue, All, G < 3 [1]: 2 (29) n (%)
- Fatigue, All, G ≥ 3 [1]: 2 (29) n (%)
- Fatigue, Related Both, Any G [1]: 2 (29) n (%)
- Fatigue, Related HBI, Any G [1]: 1 (14) n (%)
- Headache, All, G < 3 [1]: 1 (14) n (%)
- Headache, All, G ≥ 3 [1]: 1 (14) n (%)
- Headache, Related Both, Any G [1]: 1 (14) n (%)
- Headache, Related HBI, Any G [1]: 1 (14) n (%)
- Hypocalcaemia, All, G < 3 [1]: 2 (29) n (%)
- Hypocalcaemia, Related Both, Any G [1]: 1 (14) n (%)
- Hypocalcaemia, Related HBI, Any G [1]: 1 (14) n (%)
- Hypokalemia, All, G < 3 [1]: 1 (14) n (%)
- Hypokalemia, Related Both, Any G [1]: 1 (14) n (%)
- Hypophosphataemia, All, G < 3 [1]: 2 (29) n (%)
- Hypophosphataemia, Related Both, Any G [1]: 1 (14) n (%)
- Hypophosphataemia, Related HBI, Any G [1]: 1 (14) n (%)
- Hypotension, All, G < 3 [1]: 3 (43) n (%)
- Hypotension, Related Both, Any G [1]: 1 (14) n (%)
- Lipase increased, All, G < 3 [1]: 1 (14) n (%)
- Lipase increased, Related Both, Any G [1]: 1 (14) n (%)
- Lymphocyte count decreased, All, G < 3 [1]: 2 (29) n (%)
- Lymphocyte count decreased, Related Both, Any G [1]: 2 (29) n (%)
- Nausea, All, G < 3 [1]: 3 (43) n (%)
- Nausea, Related Both, Any G [1]: 2 (29) n (%)
- Nausea, Related HBI, Any G [1]: 2 (29) n (%)
- Neutrophil count decreased, All, G < 3 [1]: 2 (29) n (%)
- Neutrophil count decreased, All, G ≥ 3 [1]: 1 (14) n (%)
- Neutrophil count decreased, Related Both, Any G [1]: 1 (14) n (%)
- Neutrophil count decreased, Related HBI, Any G [1]: 1 (14) n (%)
- Non-cardiac chest pain, All, G < 3 [1]: 2 (29) n (%)
- Non-cardiac chest pain, Related HBI, Any G [1]: 1 (14) n (%)
- Oedema peripheral, All, G < 3 [1]: 2 (29) n (%)
- Oedema peripheral, Related Both, Any G [1]: 1 (14) n (%)
- Platelet count decreased, All, G < 3 [1]: 3 (43) n (%)
- Platelet count decreased, Related Both, Any G [1]: 1 (14) n (%)
- Platelet count decreased, Related HBI, Any G [1]: 2 (29) n (%)
- Pleural effusion, All, G < 3 [1]: 2 (29) n (%)
- SAE related to HBI-8000 & Nivolumab, number of subjects [1]: 0 n
- SAE related to HBI-8000 alone, number of subjects [1]: 0 n
- TEAE related to HBI-8000 & Nivolumab, number of subjects [1]: 3 n
- TEAE related to HBI-8000 alone, number of subjects [1]: 6 n
- TEAE resulting in discontinuation of HBI-8000 alone, number of subjects [1]: 2 n
- TEAE resulting in discontinuation of both HBI-8000 and Nivo, number of subjects [1]: 2 n
- Vomiting, All, G < 3 [1]: 2 (29) n (%)
- Vomiting, Related Both, Any G [1]: 2 (29) n (%)
- Weight decreased, All, G < 3 [1]: 1 (14) n (%)
- Weight decreased, Related Both, Any G [1]: 1 (14) n (%)
- White blood cell count decreased, All, G < 3 [1]: 3 (43) n (%)
- White blood cell count decreased, Related Both, Any G [1]: 1 (14) n (%)
- White blood cell count decreased, Related HBI, Any G [1]: 2 (29) n (%)
- Incidence of TEAE related to HBI-8000 alone versus dose (20, 30, 40 mg BIW + nivolumab): appeared to increase with escalating HBI-8000 dose
- Alanine aminotransferase increased, Total [2]: 4 (24) n (%)
- Anaemia, Total [2]: 8 (47) n (%)
- Aspartate aminotransferase increased, Total [2]: 4 (24) n (%)
- Atrial fibrillation, Total [2]: 4 (24) n (%)
- Back pain, Total [2]: 4 (24) n (%)
- Contusion, Total [2]: 4 (24) n (%)
- Decreased appetite, Total [2]: 9 (53) n (%)
- Dehydration, Total [2]: 5 (29) n (%)
- Diarrhoea, Total [2]: 7 (41) n (%)
- Dizziness, Total [2]: 5 (29) n (%)
- Dyspnoea, Total [2]: 9 (53) n (%)
- Fall, Total [2]: 4 (24) n (%)
- Fatigue, Total [2]: 10 (59) n (%)
- Headache, Total [2]: 4 (24) n (%)
- Hypocalcaemia, Total [2]: 6 (35) n (%)
- Hypokalemia, Total [2]: 5 (29) n (%)
- Hypophosphataemia, Total [2]: 5 (29) n (%)
- Hypotension, Total [2]: 5 (29) n (%)
- Hypoxia, Total [2]: 4 (24) n (%)
- Lipase increased, Total [2]: 5 (29) n (%)
- Lymphocyte count decreased, Total [2]: 5 (29) n (%)
- Nausea, Total [2]: 8 (47) n (%)
- Neutrophil count decreased, Total [2]: 4 (24) n (%)
- Non-cardiac chest pain, Total [2]: 4 (24) n (%)
- Oedema peripheral, Total [2]: 7 (41) n (%)
- Platelet count decreased, Total [2]: 7 (41) n (%)
- Pleural effusion, Total [2]: 5 (29) n (%)
- Vomiting, Total [2]: 4 (24) n (%)
- Weight decreased, Total [2]: 7 (41) n (%)
- White blood cell count decreased, Total [2]: 5 (29) n (%)
- Dose-limiting toxicity (DLT) (20-mg dose cohort, 3 DLT-evaluable patients): None
- Dose-limiting toxicity (DLT) (30-mg BIW dose cohort, 3 + 3 DLT-evaluable patients): None and No DLT
- Patients with DLT: Grade 3 fatigue on days of HBI-8000 administration (40-mg cohort, 6 DLT-evaluable patients, RCC patient): 1 patient
- Patients with DLT: Grade 3 headache after first dose and grade 3 diarrhea after third dose (40-mg cohort, 6 DLT-evaluable patients, melanoma patient): 1 patient
- Any SAE, number of subjects (Total, all dose levels, N = 17): 11 n
- Any TEAE, number of subjects (Total, all dose levels, N = 17): 17 n
- TEAE related to HBI-8000 & Nivolumab, number of subjects (Total, all dose levels, N = 17): 11 n
- TEAE related to HBI-8000 alone, number of subjects (Total, all dose levels, N = 17): 10 n
- TEAE resulting in discontinuation of HBI-8000 alone, number of subjects (Total, all dose levels, N = 17): 5 n
- TEAE resulting in discontinuation of both HBI-8000 and Nivo, number of subjects (Total, all dose levels, N = 17): 3 n
- Patients who died of TEAE (unrelated to HBI-8000 or nivolumab) (all dose levels, N = 17): One
- Patients with Grade 3 or higher TEAEs (all dose levels, N = 17): 15 patients
- Patients with only Grade 1 and 2 TEAEs (all dose levels, N = 17): Two
- Subjects with TEAEs attributed to the combination and TEAEs associated with HBI-8000 alone (all dose levels, N = 17): Six
- Recommended phase II dose (RP2D) (in combination with nivolumab): 30 mg BIW
- Maximum tolerated dose (MTD) (oral BIW in combination with nivolumab): < 40 mg
